Values after ≈ are worked out from the molar mass of the structure shown.
Assays:
Type in all cases: physicochemical
[1] = Chemical stability in acid and base; details: pH 2.0 to 12.0
[2] = Intrinsic pKa and intrinsic solubility of ICPD47 from pKa shift (spectrophotometric and potentiometric titration, linked ionization-dissolution model); details: 25 °C, pKa shift model
Protocol: (§1) The compound ICPD47 is sparingly soluble at near-neutral pH. Solubility is approximately equal to or below 100 μM. The solutions exceeding the solubility limit (0.25, 0.5, and 1.0 mM) were prepared by adding 1.5 equiv of NaOH (0.375 0.75, and 1.5 mM, respectively; 0.5 equiv excess), thus shifting the compound to its highly soluble deprotonated negatively charged form. The deprotonated solutions were titrated with […] more concentrated HCl (2.5 mM; 5.0 mM; and 10 mM) containing the same concentration of DMSO as in the analyte solution (2.0% in all solutions).
The pH titration was performed with a 250 μL syringe that was filled with the titrant (acid), and the needle was placed into the sample cell filled with 2.5 mL of analyzed solution. A pH microelectrode was also inserted into the same cell. […] The analyzed solution was mixed after each injection using a pipet. The pH was measured potentiometrically using a Mettler Toledo MP220 pH meter with a combined glass InLab Microelectrode. […] The pH measurements were recorded only when the pH measurement instability was less than 0.01 min^–1. […]
The ICPD47 compound solutions were prepared in the universal buffer of different pH values from 4.5 to 10.5 at every 0.5 pH unit. […] The absorbance was measured with an Agilent 8453 UV–vis spectrophotometer using the same 2.5 mL cuvette as for potentiometric titration. […]

[3] = Solubility at near-neutral pH; details: aqueous buffer
Protocol: as §1

[4] = Intrinsic pKa and intrinsic solubility from the model applied to literature titration data (Bjerrum plots)
Excerpt: Since raw data formats were unavailable, we used WebPlotDigitizer to extract data from Bjerrum plots.[28],[29] Additionally, we used the equation for bound hydrogen ions per substance molecule to reverse engineer equivalent titrant added during the titration.[30] According to the model, any protonizable compound exists in three forms, the charged-dissolved form, the uncharged-dissolved form, and the uncharged-nondissolved (aggregated) form. We use the concept of 'the active concentration of an aggregate (precipitate)'. This concentration is mathematically equal to the amount of aggregate divided by volume of solution. This aggregate remains undissolved and is at an equilibrium (thermodynamic) concentration. The uncharged form of the ICPD47 compound exists in two forms, the dissolved form [ROH] and the aggregated form [ROH↓]. Furthermore, the total concentration of the ICPD47 compound, C, is equal to the sum of all three forms of the compound and includes the deprotonated concentration [RO^-]: [drawing 1] 1 Here we assume that the deprotonated form is highly soluble and there is no need to consider the aggregated form of the negatively charged deprotonated compound. […] A is inversely proportional to the intrinsic solubility, S, and is expressed and rearranged to [drawing 7] 7 [drawing 8] […] 12 cannot be expressed as a function pH = f([Hadd^+]), but may be solved numerically.

Row | Chemical stability in acid and base [1] | solubility ([2]; aqueous buffer, kinetic from dmso stock, aqueous universal buffer / titration with DMSO, read-out: Intrinsic solubility of the uncharged form) [µM] | pKa ([2]; read-out: Intrinsic pKa (model estimate)) | solubility [3] [µM] | pKa ([4]; model fit to literature titration data, value at infinite dilution) | solubility ([4]; water, thermodynamic from solid, model fit to literature titration data (ref 5, 22, 23)) [µM] | SMILES
1 | chemically stable in acid and base | ~75 | 6.85 | ≤ 100 | – | – | CCOc1ccc(-c2snnc2-c2cc(Cl)c(O)cc2O)cc1 [ICPD47]
2 | – | – | – | – | 9.6 | 270 (≈ 83.5 µg/mL) | CN(C)CCCOc1nn(Cc2ccccc2)c2ccccc12 [benzydamine]
